Reference: publication PMC7617978, “Anti-trypanosomal quinazolines targeting lysyl-tRNA synthetases show partial efficacy in a mouse model of acute Chagas disease” (Science translational medicine, 2025)
Where two headings read alike, the source gives them in different places.

Tests used:
CYP2C19 = CYP2C19 (Homo sapiens, UniProt P33261); test: In vitro CYP inhibition, 2C19; assay type: in vitro ADME
Description: (§1) Compounds were screened for CYP inhibition activity using the protocol established by TCG Lifesciences (India). The activity of five CYP450 isoforms: 1A2; 2C9; 2D6, 3A4; and 2C19 was monitored in the presence of test or control (miconazole) compounds at 10 µM. Reactions were terminated after 10 min (30 min for CYP2C19) by the addition of acetonitrile, centrifuged and analysed via LC-MS/MS. […]

[1] = tested on: T. cruzi (Sylvio X10/7A1 strain) intracellular amastigote (in Vero cells); test: microbe, parasite or virus in culture; assay type: cell-based; details: for Fold-shift (relative to WT): intracellular amastigote in Vero cells; for EC50: Trypanosoma cruzi, Vero
T. b. rhodesiense = test: Drug sensitivity assay, T. b. rhodesiense bloodstream forms; assay type: cell-based; details: Trypanosoma brucei, read-out: EC50 value
[2] = tested on: L. donovani (MHOM-ET-67/L82) axenic amastigote; test: Drug sensitivity assay, L. donovani axenic amastigotes; assay type: cell-based; details: Leishmania donovani, WT
CYP1A2 = CYP1A2 (Homo sapiens, UniProt P05177); test: In vitro CYP inhibition, 1A2; assay type: in vitro ADME
Description: as §1

CYP2C9 = CYP2C9 (Homo sapiens, UniProt P11712); test: In vitro CYP inhibition, 2C9; assay type: in vitro ADME
Description: as §1

TcKRS1 = TcKRS1 (Trypanosoma cruzi, UniProt Q4D7V3); test: TcKRS1 inhibition assay using BIOMOL Green; assay type: biochemical; details: for IC50: recombinant TcKRS1, 14 μM ATP, 400 μM L-lysine, read-out: IC50 values (95% CI)
Description: For TcKRS1 (TcCLB.508971.30), synthetic DNA codon-optimized for expression in E. coli and encoding amino acid residues 54–580 of the TcKRS1 protein was synthesized by Genscript and subcloned into a modified pET15b vector, with an N-terminal 6×His tag and a Tobacco Etch Virus (TEV) cleavage site. The resulting plasmid was transformed into E. coli BL21(DE3) (Stratagene) for expression. A 10-ml starter culture was grown at 37°C overnight, then used to inoculate 1 L of LB Autoinduction media that was grown for 48 h at 20°C. Cell pellets were resuspended in buffer containing 25 mM Tris, 500 mM NaCl, 20 mM imidazole, pH 8.5, and lysed using a continuous flow cell disrupter (Constant Systems). Recombinant TcKRS1 was purified using Ni^2+ affinity chromatography, the 6×His tag cleaved using TEV protease and the tag and protease removed by a second Ni^2+ affinity chromatography step. The protein was further purified via size exclusion chromatography, where TcKRS1 eluted with a mass consistent with the protein forming a dimer. Purified recombinant protein were concentrated to ~1 mg/ml in buffer (25 mM Tris, 150 mM NaCl, 10 % glycerol, pH 7.5) for assay.
The enzymatic activity of recombinant KRS was determined by monitoring the concentration of pyrophosphate released during the first step of the reaction catalyzed by recombinant TcKRS1. The pyrophosphate formed was converted to two inorganic phosphate molecules using a pyrophosphatase enzyme and concentrations of the resulting phosphate were measured using the BIOMOL Green reagent (Enzo Life Sciences). All screening assays were performed in 384-well, clear, flat-bottom plates (Greiner) at room temperature (~23°C) in 50 μl reaction volumes.
To generate IC50 data for test compounds, 10-point inhibitor dose-response curves were prepared in 384-well assay plates using an ECHO 550 acoustic dispenser (Labcyte). Following preparation of the inhibitor curves, assays were carried out for recombinant KRS enzymes as follows: TcKRS1 assay wells contained rTcKRS1 assay buffer (100 mM Tris; […]; HsKRS reactions contained HsKRS assay buffer (30 mM Tris; […].
All assays were performed by adding 25 μl of assay buffer with enzyme to compound-containing assay wells before the reaction was initiated with the addition of a 25 μl substrate mixture containing L-lysine, ATP and pyrophosphatase. […] Following a 6–h reaction at room temperature, the assays were stopped by the addition of 50 μl BIOMOL Green. The BIOMOL Green signal was allowed to develop for 30 min before the absorbance of each well was read at 650 nm using a PheraStar plate reader (BMG). All liquid-dispensing steps were carried out using a Thermo Scientific WellMate dispenser (Matrix).

[3] = tested on: T. cruzi (Tulahuen strain) intracellular amastigote (in L6 cells); test: Drug sensitivity assay, T. cruzi (Tulahuen)-infected L6 rat skeletal myoblasts; assay type: cell-based; details: Trypanosoma cruzi
Description: T. cruzi epimastigotes of the Silvio strain (MHOM/BR/78/Silvio; clone X10/7A) were maintained at 28°C in RPMI 1640 medium (Merck) supplemented with trypticase peptone (4.9 mg/ml), HEPES (20 mM), haemin (20 μg/ml), and foetal bovine serum (FBS, 10%), as previously described ([29]). T. cruzi metacyclic trypomastigotes were obtained and maintained, as previously described ([29]). Briefly, late-log epimastigotes were seeded at 10^6 cells/ml in RTH/FBS and differentiated into trypomastigotes after 7 days at 28°C. Vero cells were infected with trypomastigotes for 12 hours in Dulbecco modified Eagle medium (DMEM) supplemented with 5% FBS, at 37°C in the presence of 5% CO2. Infected Vero cells were washed 3× with DMEM/FBS to remove extracellular parasites, and medium was replaced every two days until trypomastigotes re-emerged. Three rounds of infection were performed before trypomastigotes were harvested for drug sensitivity assays. For drug sensitivity assays carried out at the Swiss Tropical Institute, a T. cruzi cell line (Tulahuen C2C4) expressing the β-galactosidase gene LacZ was propagated in L6 rat skeletal myoblasts (ATCC CRL-1458) as previously described ([37]).
Drug sensitivity assays with T. cruzi (Tulahuen)-infected L6 rat skeletal myoblasts were carried out as previously described ([37]).

[4] = Metabolic stability in mouse liver microsomes; assay type: in vitro ADME; details: 1 µM, NADPH
Description: The metabolic stability of key compounds was assessed using the protocol established by TCG
Lifesciences (India). Briefly, mouse liver microsomes (MLM) were incubated with test
compounds or controls (atenolol, propranolol, diclofenac and verapamil) at 1 µM. Reactions
were initiated by the addition of NADPH and terminated by the addition of acetonitrile. […]

[5] = tested on: L. donovani (LdBOB) promastigote; test: Drug sensitivity assay, L. donovani promastigotes; assay type: cell-based; details: for EC50: Leishmania donovani
[6] = read-out: EC50 value, KRS1 OE, intracellular amastigote in Vero cells
[7] = read-out: EC50 value, KRS1 S319L, intracellular amastigote in Vero cells
[8] = read-out: EC50 value, WT, intracellular amastigote in Vero cells
[9] = KRS1 OE, promastigote, read-out: EC50 value
[10] = WT, promastigote, read-out: EC50 value
[11] = read-out: EC50 value, KRS1 S324L, promastigote

Chain of TcKRS1 (Q4D7V3 entry or part of it): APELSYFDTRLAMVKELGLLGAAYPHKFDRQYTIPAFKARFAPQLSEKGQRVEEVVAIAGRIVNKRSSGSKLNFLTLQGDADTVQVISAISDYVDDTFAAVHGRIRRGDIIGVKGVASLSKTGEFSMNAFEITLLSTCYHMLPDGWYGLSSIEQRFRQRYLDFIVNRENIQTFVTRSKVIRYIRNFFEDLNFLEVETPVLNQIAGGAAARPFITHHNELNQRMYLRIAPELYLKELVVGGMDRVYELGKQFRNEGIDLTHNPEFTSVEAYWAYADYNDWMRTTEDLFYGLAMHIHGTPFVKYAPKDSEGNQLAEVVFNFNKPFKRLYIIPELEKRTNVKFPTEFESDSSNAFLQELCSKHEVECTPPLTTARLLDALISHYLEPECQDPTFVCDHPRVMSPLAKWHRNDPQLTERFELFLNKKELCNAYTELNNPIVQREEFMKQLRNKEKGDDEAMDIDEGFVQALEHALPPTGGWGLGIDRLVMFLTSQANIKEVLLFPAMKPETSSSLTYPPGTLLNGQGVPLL
Chain of CYP2C9 (P11712 whole entry): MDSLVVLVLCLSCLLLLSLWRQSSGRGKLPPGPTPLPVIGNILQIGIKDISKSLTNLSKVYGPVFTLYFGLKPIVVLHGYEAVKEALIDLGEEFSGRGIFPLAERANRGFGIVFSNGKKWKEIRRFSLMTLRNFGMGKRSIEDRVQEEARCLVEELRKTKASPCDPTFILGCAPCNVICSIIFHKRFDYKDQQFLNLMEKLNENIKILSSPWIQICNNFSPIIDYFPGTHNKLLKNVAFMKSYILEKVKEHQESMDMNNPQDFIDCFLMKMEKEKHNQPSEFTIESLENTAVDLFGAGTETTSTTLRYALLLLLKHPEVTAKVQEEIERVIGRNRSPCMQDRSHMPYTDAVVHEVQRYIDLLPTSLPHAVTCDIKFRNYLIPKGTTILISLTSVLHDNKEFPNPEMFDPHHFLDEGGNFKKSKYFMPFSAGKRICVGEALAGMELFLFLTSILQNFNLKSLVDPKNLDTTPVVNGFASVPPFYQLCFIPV
Chain of CYP1A2 (P05177 whole entry): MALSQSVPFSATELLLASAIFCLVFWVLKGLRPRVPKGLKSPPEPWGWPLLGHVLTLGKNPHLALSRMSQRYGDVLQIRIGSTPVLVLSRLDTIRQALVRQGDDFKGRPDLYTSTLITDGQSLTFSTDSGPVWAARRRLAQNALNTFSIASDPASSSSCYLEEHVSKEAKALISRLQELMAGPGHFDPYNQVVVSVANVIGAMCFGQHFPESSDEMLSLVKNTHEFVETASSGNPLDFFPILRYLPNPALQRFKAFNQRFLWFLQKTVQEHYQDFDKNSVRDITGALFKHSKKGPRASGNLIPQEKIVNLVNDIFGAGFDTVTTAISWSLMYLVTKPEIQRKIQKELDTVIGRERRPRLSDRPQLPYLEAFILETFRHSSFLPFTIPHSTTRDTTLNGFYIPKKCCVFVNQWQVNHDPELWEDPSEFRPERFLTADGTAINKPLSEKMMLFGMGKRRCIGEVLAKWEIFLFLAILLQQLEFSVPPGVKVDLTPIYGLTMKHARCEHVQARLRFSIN
Chain of CYP2C19 (P33261 whole entry, species assumed, canonical isoform): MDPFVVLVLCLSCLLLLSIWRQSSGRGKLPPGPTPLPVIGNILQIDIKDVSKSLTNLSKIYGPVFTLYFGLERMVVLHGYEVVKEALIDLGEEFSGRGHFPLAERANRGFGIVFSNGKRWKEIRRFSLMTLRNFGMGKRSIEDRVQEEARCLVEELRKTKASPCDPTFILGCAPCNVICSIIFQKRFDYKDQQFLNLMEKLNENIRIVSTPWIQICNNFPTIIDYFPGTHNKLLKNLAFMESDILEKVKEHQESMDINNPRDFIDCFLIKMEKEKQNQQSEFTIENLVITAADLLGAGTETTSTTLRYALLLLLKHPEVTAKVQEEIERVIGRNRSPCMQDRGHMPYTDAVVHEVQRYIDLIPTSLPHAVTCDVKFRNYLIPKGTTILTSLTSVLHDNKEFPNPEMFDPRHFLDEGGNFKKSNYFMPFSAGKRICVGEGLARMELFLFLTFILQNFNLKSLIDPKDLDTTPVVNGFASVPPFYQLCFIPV

| Structure (SMILES) | inhibition at 30 min, 10 µM (CYP2C19) | EC50 [1, 6] | EC50 [1, 7] | EC50 [1, 8] | EC50 [2] | inhibition at 10 min, 10 µM (CYP1A2) | inhibition at 10 min, 10 µM (CYP2C9) | extent of inhibition of TcKRS1 (TcKRS1) | IC50 (TcKRS1) | Mouse liver microsome stability [4] | EC50 [5, 9] | EC50 [5, 10] | EC50 [5, 11] | also measured |
| --- | --- | --- | --- | --- | --- | --- | --- | --- | --- | --- | --- | --- | --- | --- |
| Cc1nc(N)c2c(F)c(F)c(SC3CCCCC3)c(F)c2n1 [DMU759, 7-(Cyclohexylthio)-5,6,8-trifluoro-2-methylquinazolin-4-amine] | 12.8 ± 2.8% | 121 ± 19 nM | 1540 ± 130 nM | 16 ± 1 nM | 284 ± 20 nM | 61.5 ± 0.9% | 7.9 ± 0.8% | full inhibition | 15 nM | > 500 µL/min/mg | 1470 ± 56 nM | 115 ± 0.1 nM | 1320 ± 32 nM | Fold-shift (relative to WT) ([1]; KRS1 OE): 8 fold; Fold-shift (relative to WT) ([1]; KRS1 S319L): 97 fold; EC50 (T. b. rhodesiense; WT, BSF): 313 ± 183 nM; EC50 ([3]; WT Tulahuen strain, intracellular amastigote in L6 cells, read-out: EC50 value): 18 ± 7 nM; Fold-shift (relative to WT) ([5]; KRS1 OE, promastigote): 13 fold; Fold-shift (relative to WT) ([5]; KRS1 S324L, promastigote): 12 fold |
| Cc1nc(N)c2c(F)c(F)c(NC3CCCC3)c(F)c2n1 [DMU371, N7-Cyclopentyl-5,6,8-trifluoro-2-methylquinazoline-4,7-diamine] | 6.1 ± 1.3% | 888 ± 117 nM | 589 ± 57 nM | 205 ± 24 nM | 5320 ± 2780 nM | 74.8 ± 0.5% | 8.6 ± 0.6% | full inhibition | 185 nM | > 500 µL/min/mg | 1860 ± 63 nM | 524 ± 9 nM | 1740 ± 49 nM | EC50 (T. b. rhodesiense): 1090 ± 420 nM; EC50 ([3]; TULAHUEN, L6, read-out: EC50 value): 233 ± 86 nM |
